≈ marks a conversion by molar mass, not a printed value. Where a SMILES comes first, the peptide text is derived from it. [ ]: non-standard residue; d: D form. The star is where a group is joined. JQ1acid = Cc1sc2c(c1C)C(c1ccc(Cl)cc1)=N[C@@H](CC(=O)*)c1nnc(C)n1-2; NHBn(4-(4-Me-thiazol-5-yl)) = Cc1ncsc1-c1ccc(CN*)cc1; Hyp = O=C(O)[C@@H]1C[C@@H](O)CN1; Tle = CC(C)(C)[C@H](N)C(=O)O; Sar = CNCC(=O)O
Assays:
BRD4 = target: T1, BRD4 (Homo sapiens, UniProt O60885); experiment: BRD4 degradation by Western blot analysis in MDA-MB-231 cells; type: cell-based; conditions: for dose-response of BRD4 degradation (in words): 100 nM to 10 μM; for effect of cotreatment with proteasome inhibitor bortezomib on BRD4 degradation: 1 μM compound + 5 nM bortezomib; for BRD4 degradation in time-course experiments (in words) / Densitometry (% of control), BRD4-immunoreactive band relative to DMSO vehicle: 1 μM; for BRD4 degradation in time-course experiments (in words): 4 up to 24 h
T1 construct: endogenous in cells; host or cells: MDA-MB-231
Description: In Vitro Biological Validation of PROTACs and Preliminary Assessment of Thermodynamic Aqueous Solubility and Metabolic Stability of Selected BRD4-Degrading PROTACs. With the aim of proving the utility of our platform and the compatibility of the substructures accessible by the MCR strategy with a proximity-based degradation, the ability of our PROTAC candidates to effectively act as BRD4 degraders was tested in the human breast cancer cell line MDA-MB-231, known to express detectable levels of this protein.
The human breast adenocarcinoma MDA-MB-231 cell line was cultured in DMEM (Sigma-Aldrich) supplemented with 10% fetal bovine serum (FBS), 1% glutamine, and 1% penicillin/streptomycin. For Western blot analysis, […] cells/well were plated into 12-well plates containing DMEM complete growth medium, to be treated with the synthesized compounds, at the indicated concentrations, for different time lengths. After treatments, cells were scraped and lysed to obtain protein extract using RIPA lysis buffer supplemented with protease (PIC, Merck-Millipore) and phosphatase inhibitors (NaF 1 M, Na3VO4 1 M, PMSF […], Sigma-Aldrich). Cells lysates were centrifuged at 13 000 rpm for 10 min at 4 °C to remove membranes and insoluble fractions. Protein quantification of the supernatant fraction was performed with Braford protein assay (Sigma-Aldrich). […] aliquots of protein extracts were used for 12% SDS-PAGE. After transfer into nitrocellulose membranes, BRD4 and tubulin protein levels were evaluated by immunoblotting using a rabbit polyclonal anti-BRD4 (Bethyl Laboratories) and a mouse monoclonal α-tubulin (Sigma-Aldrich) IgG as primary antibodies and an antirabbit or antimouse HRP-conjugated secondary antibody (Bio-Rad Laboratories). Protein levels were detected by chemiluminescent conversion of the HRP substrate LumiGLO (Thermo Fisher Scientific) using the ChemiDoc imaging system (Bio-Rad). Band densitometry was assessed, normalized to α-tubulin immunoreactive bands, and reported as percentage of the 0.3% DMSO control lane.

[1] = Thermodynamic aqueous solubility; type: physicochemical; conditions: 2 h
Description: Saturated solutions were prepared by dissolving the tested compounds in 0.1 M phosphate-buffered saline (pH = 7.4) or 0.01 N HCl solutions and sonicated for 30 s. After equilibration on an orbital shaker at 25 °C for 2 h, the solutions were centrifuged at 13 000 rpm for 5 min and filtered through a 0.2 μm regenerated cellulose (RC) syringe filter. A 400 μL aliquot of each filtrate was diluted with 100 μL of acetonitrile and analyzed by LC-UV. When the measured peak area was out of the calibration range (5–100 μM), the sample was further diluted in water–acetonitrile 1:1 mixture.

[2] = 8 h treatment, MDA-MB-231 cells, from Western blot densitometry
[3] = 0.01 N HCl solution, HCl 0.01 N, pH 2.0, 25 °C
[4] = phosphate-buffered saline, PBS 0.1 M, pH 7.4, 25 °C

| Structure (SMILES) | effect of cotreatment with proteasome inhibitor bortezomib on BRD4 degradation (BRD4; 8 h) | DC50 (BRD4; [2]) [nM] | Dmax (BRD4; 8 h treatment, MDA-MB-231 cells, from Western blot densitometry, read-out: Dmax (maximal % of reduction toward DMSO control lane)) [%] | solubility thermodynamic at 2 h [1, 3] [µM] | solubility thermodynamic at 2 h [1, 4] [µM] | melting point | Densitometry (% of control), BRD4-immunoreactive band relative to DMSO vehicle (BRD4; 4 h, MDA-MB-231 cells) | Densitometry (% of control), BRD4-immunoreactive band relative to DMSO vehicle (BRD4; 8 h, MDA-MB-231 cells) | Densitometry (% of control), BRD4-immunoreactive band relative to DMSO vehicle (BRD4; 16 h, MDA-MB-231 cells) | Densitometry (% of control), BRD4-immunoreactive band relative to DMSO vehicle (BRD4; 24 h, MDA-MB-231 cells) | dose-response of BRD4 degradation (in words) (BRD4; 8 h, MDA-MB-231 cells) | BRD4 degradation in time-course experiments (in words) (BRD4; MDA-MB-231 cells) |
| --- | --- | --- | --- | --- | --- | --- | --- | --- | --- | --- | --- | --- |
| Cc1sc2c(c1C)C(c1ccc(Cl)cc1)=N[C@@H](CC(=O)NCC(=O)NCCCOc1cccc3c1C(=O)N(C1CCC(=O)NC1=O)C3=O)c1nnc(C)n1-2 (stereo partly drawn) [Compound 27, 2-((S)-4-(4-Chlorophenyl)-2,3,9-trimethyl-6H-thieno[3,2-f][1,2,4]triazolo[4,3-a][1,4]diazepin-6-yl)-N-(2-((3-((2-(2,6-dioxopiperidin-3-yl)-1,3-dioxoisoindolin-4-yl)oxy)propyl)amino)-2-oxoethyl)acetamide] | abolish BRD4 degradation | 97.1 | 88 | 145 (≈ 112 µg/mL) | 48 (≈ 37 µg/mL) | 221.3 to 223.6 °C (dec.) |  |  |  |  | showed dose-dependency | decreased expression of BRD4 at all the time-points tested |
| Cc1sc2c(c1C)C(c1ccc(Cl)cc1)=N[C@@H](CC(=O)NCC(=O)NCCCCOc1cccc3c1C(=O)N(C1CCC(=O)NC1=O)C3=O)c1nnc(C)n1-2 (stereo partly drawn) [Compound 28, 2-((S)-4-(4-Chlorophenyl)-2,3,9-trimethyl-6H-thieno[3,2-f][1,2,4]triazolo[4,3-a][1,4]diazepin-6-yl)-N-(2-((4-((2-(2,6-dioxopiperidin-3-yl)-1,3-dioxoisoindolin-4-yl)oxy)butyl)amino)-2-oxoethyl)acetamide] |  |  |  | 48 (≈ 37.7 µg/mL) | 17 (≈ 13.3 µg/mL) | 231.9 to 232.6 °C (dec.) |  |  |  |  |  |  |
| Cc1ncsc1-c1ccc(CNC(=O)[C@@H]2C[C@@H](O)CN2C(=O)[C@@H](NC(=O)CNC(=O)CN(C)C(=O)C[C@@H]2N=C(c3ccc(Cl)cc3)c3c(sc(C)c3C)-n3c(C)nnc32)C(C)(C)C)cc1 [Compound 45, (2S,4R)-1-((S)-2-(2-(2-(2-((S)-4-(4-Chlorophenyl)-2,3,9-trimethyl-6H-thieno[3,2-f][1,2,4]triazolo[4,3-a][1,4]diazepin-6-yl)-N-methylacetamido)acetamido)acetamido)-3,3-dimethylbutanoyl)-4-hydroxy-N-(4-(4-methylthiazol-5-yl)benzyl)pyrrolidine-2-carboxamide] (JQ1acid-[Sar]G[Tle][Hyp]-{NHBn(4-(4-Me-thiazol-5-yl))}) |  |  |  |  |  | 114.6 to 116 °C | 41,6 % of control | 107,9 % of control |  |  |  |  |
| Cc1ncsc1-c1ccc(CNC(=O)[C@@H]2C[C@@H](O)CN2C(=O)[C@@H](NC(=O)CNC(=O)CN2CCN(C(=O)C[C@@H]3N=C(c4ccc(Cl)cc4)c4c(sc(C)c4C)-n4c(C)nnc43)CC2)C(C)(C)C)cc1 [Compound 46, (2S,4R)-1-((S)-2-(2-(2-(4-(2-((S)-4-(4-Chlorophenyl)-2,3,9-trimethyl-6H-thieno[3,2-f][1,2,4]triazolo[4,3-a][1,4]diazepin-6-yl)acetyl)piperazin-1-yl)acetamido)acetamido)-3,3-dimethylbutanoyl)-4-hydroxy-N-(4-(4-methylthiazol-5-yl)benzyl)pyrrolidine-2-carboxamide] |  |  |  |  |  | 183.3 to 184.8 °C | 61,7 % of control | 135 % of control |  |  |  |  |

More lines, main results first:

| effect of cotreatment with proteasome inhibitor bortezomib on BRD4 degradation (BRD4; 8 h) | DC50 (BRD4; [2]) [nM] | Dmax (BRD4; 8 h treatment, MDA-MB-231 cells, from Western blot densitometry, read-out: Dmax (maximal % of reduction toward DMSO control lane)) [%] | solubility thermodynamic at 2 h [1, 3] [µM] | solubility thermodynamic at 2 h [1, 4] [µM] | melting point | Densitometry (% of control), BRD4-immunoreactive band relative to DMSO vehicle (BRD4; 4 h, MDA-MB-231 cells) | Densitometry (% of control), BRD4-immunoreactive band relative to DMSO vehicle (BRD4; 8 h, MDA-MB-231 cells) | Densitometry (% of control), BRD4-immunoreactive band relative to DMSO vehicle (BRD4; 16 h, MDA-MB-231 cells) | Densitometry (% of control), BRD4-immunoreactive band relative to DMSO vehicle (BRD4; 24 h, MDA-MB-231 cells) | Structure (SMILES) | dose-response of BRD4 degradation (in words) (BRD4; 8 h, MDA-MB-231 cells) | BRD4 degradation in time-course experiments (in words) (BRD4; MDA-MB-231 cells) |
| --- | --- | --- | --- | --- | --- | --- | --- | --- | --- | --- | --- | --- |
| abolish BRD4 degradation | 89.9 |  |  |  | 229.4 to 230 °C (dec.) | 51,8 % of control | 23,1 % of control | 17,4 % of control | 24,4 % of control | Cc1sc2c(c1C)C(c1ccc(Cl)cc1)=N[C@@H](CC(=O)N1CCN(CC(=O)NCCCCOc3cccc4c3C(=O)N(C3CCC(=O)NC3=O)C4=O)CC1)c1nnc(C)n1-2 (stereo partly drawn) [Compound 33, 2-(4-(2-((S)-4-(4-Chlorophenyl)-2,3,9-trimethyl-6H-thieno[3,2-f][1,2,4]triazolo[4,3-a][1,4]diazepin-6-yl)acetyl)piperazin-1-yl)-N-(4-((2-(2,6-dioxopiperidin-3-yl)-1,3-dioxoisoindolin-4-yl)oxy)butyl)acetamide] | degradation was observed only at 1 and 3 μM concentrations | able to induce BRD4 degradation, although the onset of this effect was delayed (after 8 h) |
|  |  |  |  |  | 173.8 to 174.5 °C (dec.) | 107,8 % of control | 40,1 % of control | 39,2 % of control | 72,1 % of control | Cc1sc2c(c1C)C(c1ccc(Cl)cc1)=N[C@@H](CC(=O)N1CCN(CC(=O)NCCOCCOc3cccc4c3C(=O)N(C3CCC(=O)NC3=O)C4=O)CC1)c1nnc(C)n1-2 (stereo partly drawn) [Compound 35, 2-(4-(2-((S)-4-(4-Chlorophenyl)-2,3,9-trimethyl-6H-thieno[3,2-f][1,2,4]triazolo[4,3-a][1,4]diazepin-6-yl)acetyl)piperazin-1-yl)-N-(2-(2-((2-(2,6-dioxopiperidin-3-yl)-1,3-dioxoisoindolin-4-yl)oxy)ethoxy)ethyl)acetamide] |  |  |
|  |  |  |  |  | 194.5 to 195.8 °C (dec.) | 110,8 % of control | 54,7 % of control | 41,4 % of control | 64,7 % of control | Cc1sc2c(c1C)C(c1ccc(Cl)cc1)=N[C@@H](CC(=O)N1CCN(CC(=O)NCCOCCOCCOc3cccc4c3C(=O)N(C3CCC(=O)NC3=O)C4=O)CC1)c1nnc(C)n1-2 (stereo partly drawn) [Compound 36, 2-(4-(2-((S)-4-(4-Chlorophenyl)-2,3,9-trimethyl-6H-thieno[3,2-f][1,2,4]triazolo[4,3-a][1,4]diazepin-6-yl)acetyl)piperazin-1-yl)-N-(2-(2-(2-((2-(2,6-dioxopiperidin-3-yl)-1,3-dioxoisoindolin-4-yl)oxy)ethoxy)ethoxy)ethyl)acetamide] |  |  |
|  |  |  |  |  | 164.3 to 165.5 °C | 50 % of control | 65,6 % of control |  |  | Cc1ncsc1-c1ccc(CNC(=O)[C@@H]2C[C@@H](O)CN2C(=O)[C@@H](NC(=O)CCCNC(=O)CN2CCN(C(=O)C[C@@H]3N=C(c4ccc(Cl)cc4)c4c(sc(C)c4C)-n4c(C)nnc43)CC2)C(C)(C)C)cc1 [Compound 47, (2S,4R)-1-((S)-2-(4-(2-(4-(2-((S)-4-(4-Chlorophenyl)-2,3,9-trimethyl-6H-thieno[3,2-f][1,2,4]triazolo[4,3-a][1,4]diazepin-6-yl)acetyl)piperazin-1-yl)acetamido)butanamido)-3,3-dimethylbutanoyl)-4-hydroxy-N-(4-(4-methylthiazol-5-yl)benzyl)pyrrolidine-2-carboxamide] |  |  |

Source: paper PMC9706574, “A Versatile and Sustainable Multicomponent Platform for the Synthesis of Protein Degraders: Proof-of-Concept Application to BRD4-Degrading PROTACs” (Journal of Medicinal Chemistry, 2022)
